The source of these data is patent US20260200942A1, “PARP7 INHIBITORS AND THEIR APPLICATIONS” (CHONGQING PHARSCIN INNOBIO CO., LTD., priority 2023, published 2026).

A short description of series [1]: Liver microsomal stability study, rat. It counts as in vitro ADME. The settings on record: Rat liver microsomes. The method, then:
(§1) The above compounds were diluted to a 1.5 μM intermediate working solution with 0.1 M potassium phosphate buffer containing 0.75 mg/mL liver microsomes, and then 30 μL of the intermediate working solution was dispensed into reaction plates for different time points (0, 5, 15, 30, 45, 60 min). 150 μL of methanol solution containing internal standard was added to the 0 min plate wells. For the other time points (5, 15, 30, 45, 60 min), the sample plates were pre-incubated at 37° C. for 5 min, after which the reaction was initiated with 15 μL of 6 mM NADPH solution and timing was started. 15 μL of 6 mM NADPH solution was added to the 0 min samples to balance the system. At 5 min, 15 min, 30 min, 45 min, and 60 min, respectively, 150 μL of methanol solution containing internal standard was added to the reaction wells to terminate the reaction. After the reaction was complete, the plates were shaken on a shaker at 600 rpm for 10 min, then centrifuged at 4000 rpm for 15 min. 80 μL of supernatant from each well was transferred to a 96-well sample plate containing 150 μL of ultrapure water, mixed, and then analyzed by LC/MS to calculate T1/2.

A short description of series [2]: Liver microsomal stability study, human. Conditions: Human liver microsomes. Type of series: in vitro ADME. The method, then:
as §1

Series [3] is described as follows: Liver microsomal stability study, mouse. Type of series: in vitro ADME. Conditions: Mouse liver microsomes. The method, then:
as §1

The next series has as its target T1, PARP7 (Homo sapiens, UniProt Q7Z3E1).
T1 construct: purchased BPS 80527
T1 sequence (Q7Z3E1 1-657): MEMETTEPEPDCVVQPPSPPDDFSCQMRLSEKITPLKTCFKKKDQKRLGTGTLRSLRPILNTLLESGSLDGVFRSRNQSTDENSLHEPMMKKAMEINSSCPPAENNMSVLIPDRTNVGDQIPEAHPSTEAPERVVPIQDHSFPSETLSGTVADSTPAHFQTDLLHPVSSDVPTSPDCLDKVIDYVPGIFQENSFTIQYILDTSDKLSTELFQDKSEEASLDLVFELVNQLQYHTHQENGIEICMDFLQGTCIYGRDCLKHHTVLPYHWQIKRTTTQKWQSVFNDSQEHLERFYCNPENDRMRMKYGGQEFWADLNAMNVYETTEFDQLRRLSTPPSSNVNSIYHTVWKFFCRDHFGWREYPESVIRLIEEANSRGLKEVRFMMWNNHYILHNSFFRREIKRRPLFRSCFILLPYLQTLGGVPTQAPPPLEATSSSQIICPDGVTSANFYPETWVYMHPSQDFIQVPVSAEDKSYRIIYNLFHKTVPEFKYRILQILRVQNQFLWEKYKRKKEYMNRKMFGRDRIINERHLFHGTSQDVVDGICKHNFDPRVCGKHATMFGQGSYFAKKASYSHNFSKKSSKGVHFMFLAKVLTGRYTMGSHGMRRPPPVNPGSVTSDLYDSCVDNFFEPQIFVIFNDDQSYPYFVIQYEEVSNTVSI
Put plainly: PARP7 inhibitory activity assay (histone-coated 384-well plate, chemiluminescence). Type of series: biochemical. The text has this:
Inhibition rate (%) calculation formula: […]

The target in a further series is T2, PARP2 (Homo sapiens, UniProt Q9UGN5).
T2 construct: purchased BPS Bioscience
As to the kind of experiment: PARP2 inhibitory activity assay (BPS PARP2 Chemiluminescent Activity Assay Kit). It counts as biochemical. An excerpt:
The PARP2 enzyme activity assay method used in the present disclosure employs reagents from the PARP2 Chemiluminescent Activity Assay Kit from BPS Bioscience, USA. […] The test results are shown in Table 1. /” indicates not tested.

Molecules are shown by their SMILES.

T2 sequence (Q9UGN5 whole entry): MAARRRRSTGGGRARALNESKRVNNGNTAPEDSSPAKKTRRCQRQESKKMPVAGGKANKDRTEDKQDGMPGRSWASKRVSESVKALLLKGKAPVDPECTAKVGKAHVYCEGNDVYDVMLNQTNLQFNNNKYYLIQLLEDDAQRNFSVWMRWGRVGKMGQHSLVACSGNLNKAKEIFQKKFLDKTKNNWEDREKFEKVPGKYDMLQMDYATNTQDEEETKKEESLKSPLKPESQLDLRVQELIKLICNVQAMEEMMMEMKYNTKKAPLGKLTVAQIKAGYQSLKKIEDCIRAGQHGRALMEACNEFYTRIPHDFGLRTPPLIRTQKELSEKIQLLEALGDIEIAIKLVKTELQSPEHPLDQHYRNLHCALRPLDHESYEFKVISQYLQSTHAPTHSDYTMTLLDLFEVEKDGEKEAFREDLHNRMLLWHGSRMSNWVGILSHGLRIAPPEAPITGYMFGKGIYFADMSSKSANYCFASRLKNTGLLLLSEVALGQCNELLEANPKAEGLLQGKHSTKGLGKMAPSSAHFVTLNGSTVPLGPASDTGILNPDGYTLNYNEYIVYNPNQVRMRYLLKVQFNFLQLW

In the case of `O=c1[nH]nc(CN[C@H]2C[C@H](C(=O)N3C4CCC3CN(c3ncc(C(F)(F)F)cn3)C4)C2)cc1C(F)(F)F` [Embodiment 3], the half-life at 1 µM in series [1], in series [2] and in series [3] was > 1 h in each case. The molecule also gave a half-maximal inhibitory concentration (IC50) at PARP7 of 10 to 100 nM.

For `O=c1[nH]cc(CN[C@H]2C[C@H](C(=O)N3C4CCC3CN(c3ncc(C(F)(F)F)cn3)C4)C2)cc1C(F)(F)F` [Embodiment 4], the half-life at 1 µM was > 1 h in series [1], 0.5 to 1 h in series [2] and > 1 h in series [3]. Besides, on PARP7, the half-inhibitory concentration (IC50) fell in the range of 10 to 100 nM.

For the molecule `O=c1[nH]cc(CN[C@H]2C[C@H](C(=O)N3CCN(c4ncc(C(F)(F)F)cn4)CC3)C2)cc1C(F)(F)F` [Embodiment 13], the half-life at 1 µM in series [1] was > 1 h; in series [2] it was 0.5 to 1 h; in series [3] it was > 1 h. Moreover, on PARP7, the IC50 is 10 to 100 nM.

Regarding `O=C(C1CN(Cc2c[nH]c(=O)c(C(F)(F)F)c2)C1)N1CCN(c2ncc(C(F)(F)F)cn2)CC1` [Embodiment 14], the half-life at 1 µM in series [1], in series [2] and in series [3] was > 1 h each time. Also, on PARP7, the concentration for half-maximal inhibition (IC50) lay within 10 to 100 nM.

As for `COc1cc(C(F)(F)F)cnc1N1CCN(C(=O)C2CN(Cc3cc(C(F)(F)F)c(=O)[nH]n3)C2)CC1` [Embodiment 46, 6-((3-(4-(3-methoxy-5-(trifluoromethyl)pyridin-2-yl)piperazine-1-carbonyl)azetidin-1-yl)methyl)-4-(trifluoromethyl)pyridazin-3(2H)-one], the results for the IC50 on PARP2 and against PARP7 were 10 to 100 nM and < 10 nM, respectively.

As for `CC(C)(N[C@H]1C[C@H](C(=O)N2CCN(c3ncc(C(F)(F)F)cn3)CC2)C1)c1cc(C(F)(F)F)c(=O)[nH]n1` [Embodiment 48], the IC50 was 10 to 100 nM at PARP2 and < 10 nM against PARP7.

On PARP7, `O=C(C1CN(Cc2n[nH]c(=O)cc2OC2CCC2)C1)N1CCN(c2ncc(C(F)(F)F)cn2)CC1` [Embodiment 51, 5-cyclobutoxy-6-((3-(4-(5-(trifluoromethyl)pyrimidin-2-yl)piperazine-1-carbonyl)azetidin-1-yl)methyl)pyridazin-3(2H)-one] showed an IC50 of 100 to 1000 nM.

As for `O=c1cc(OC2CCC2)c(CN[C@H]2C[C@H](C(=O)N3CCN(c4ncc(C(F)(F)F)cn4)CC3)C2)n[nH]1` [Embodiment 52], the IC50 at PARP7 is 10 to 100 nM.

Take `Cc1cc(C(F)(F)F)cnc1N1CCN(C(=O)[C@H]2C[C@H](NCc3cc(C(F)(F)F)c(=O)[nH]n3)C2)CC1` [Embodiment 53]: the 50% inhibitory concentration (IC50) at PARP7 fell in the range of 10 to 100 nM.

Consider `O=C(C1CN(Cc2n[nH]c(=O)cc2C(F)(F)F)C1)N1CCN(c2ncc(C(F)(F)F)cn2)CC1` [Embodiment 54, 5-(trifluoromethyl)-6-((3-(4-(5-(trifluoromethyl)pyrimidin-2-yl)piperazine-1-carbonyl)azetidin-1-yl)methyl)pyridazin-3(2H)-one], for which, on PARP7, the IC50 lay in the range of 100 to 1000 nM.

Molecule `O=c1cc(C(F)(F)F)c(CN[C@H]2C[C@H](C(=O)N3CCN(c4ncc(C(F)(F)F)cn4)CC3)C2)n[nH]1` [Embodiment 55] came in with a concentration for half-maximal inhibition (IC50) against PARP7 of 1000 to 10000 nM.

For the molecule `O=c1[nH]nc(CN[C@H]2C[C@H](C(=O)N3CCN(c4ncc(C(F)(F)F)cc4C4CC4)CC3)C2)cc1C(F)(F)F` [Embodiment 56], at PARP7, the IC50 fell in the range of 10 to 100 nM.

Regarding `COc1cc(N2CCN(C(=O)C3CN(Cc4cc(C(F)(F)F)c(=O)[nH]n4)C3)CC2)ncc1C(F)(F)F` [Embodiment 57, 6-((3-(4-(4-methoxy-5-(trifluoromethyl)pyridin-2-yl)piperazine-1-carbonyl)azetidin-1-yl)methyl)-4-(trifluoromethyl)pyridazin-3(2H)-one], the IC50 on PARP7 was < 10 nM.

On PARP7, `CCOc1cc(C(F)(F)F)cnc1N1CCN(C(=O)[C@H]2C[C@H](NC(C)(C)c3cc(C(F)(F)F)c(=O)[nH]n3)C2)CC1` [Embodiment 58] yielded an IC50 of 10 to 100 nM.

In turn, `COc1cc(C(F)(F)F)cnc1N1CCN(C(=O)[C@H]2C[C@H](NC(C)(C)c3cc(C(F)(F)F)c(=O)[nH]n3)C2)CC1` [Embodiment 59] gave an IC50 against PARP7 of 10 to 100 nM.

Take `CC(C)(N[C@H]1C[C@H](C(=O)N2CCN(c3ncc(C(F)(F)F)cc3C(N)=O)CC2)C1)c1cc(C(F)(F)F)c(=O)[nH]n1` [Embodiment 60, 2-(4-((1R,3R)-3-((2-(6-oxo-5-(trifluoromethyl)-1,6-dihydropyridazin-3-yl)propan-2-yl)amino)cyclobutane-1-carbonyl)piperazin-1-yl)-5-(trifluoromethyl)nicotinamide]: the results for the IC50 against PARP2 and against PARP7 were 100 to 1000 nM and < 10 nM, respectively.

As to `NC(=O)c1cc(C(F)(F)F)cnc1N1CCN(C(=O)[C@H]2C[C@H](NCc3cc(C(F)(F)F)c(=O)[nH]n3)C2)CC1` [Embodiment 62, 2-(4-((1R,3R)-3-(((6-oxo-5-(trifluoromethyl)-1,6-dihydropyridazin-3-yl)methyl)amino)cyclobutane-1-carbonyl)piperazin-1-yl)-5-(trifluoromethyl)nicotinamide], the figures for the half-inhibitory concentration (IC50) against PARP2 and against PARP7 were 10 to 100 nM and < 10 nM, respectively.

For the molecule `CC(C)(N[C@H]1C[C@H](C(=O)N2CCN(c3ncc(C(F)(F)F)c4cc[nH]c34)CC2)C1)c1cc(C(F)(F)F)c(=O)[nH]n1` [Embodiment 64, 4-(trifluoromethyl)-6-(2-(((1R,3R)-3-(4-(4-(trifluoromethyl)-1H-pyrrolo[2,3-c]pyridin-7-yl)piperazine-1-carbonyl)cyclobutyl)amino)propan-2-yl)pyridazin-3(2H)-one], the concentration for half-maximal inhibition (IC50) against PARP2 was 100 to 1000 nM; at PARP7, < 10 nM.

With `Cn1ccc2c(C(F)(F)F)cnc(N3CCN(C(=O)[C@H]4C[C@H](NC(C)(C)c5cc(C(F)(F)F)c(=O)[nH]n5)C4)CC3)c21` [Embodiment 65, 6-(2-(((1R,3R)-3-(4-(1-methyl-4-(trifluoromethyl)-1H-pyrrolo[2,3-c]pyridin-7-yl)piperazine-1-carbonyl)cyclobutyl)amino)propan-2-yl)-4-(trifluoromethyl)pyridazin-3(2H)-one], on PARP2, the IC50 lay within 100 to 1000 nM.

Regarding `CC(C)(N[C@H]1C[C@H](C(=O)N2CCN(c3ncc(C(F)(F)F)cc3C(=O)N3CCCC3)CC2)C1)c1cc(C(F)(F)F)c(=O)[nH]n1` [Embodiment 66], the IC50 at PARP7 was 10 to 100 nM.

With `CNC(=O)c1cc(C(F)(F)F)cnc1N1CCN(C(=O)[C@H]2C[C@H](NC(C)(C)c3cc(C(F)(F)F)c(=O)[nH]n3)C2)CC1` [Embodiment 67, N-methyl-2-(4-((1R,3R)-3-((2-(6-oxo-5-(trifluoromethyl)-1,6-dihydropyridazin-3-yl)propan-2-yl)amino)cyclobutane-1-carbonyl)piperazin-1-yl)-5-(trifluoromethyl)nicotinamide], the figures for the half-maximal inhibitory concentration (IC50) against PARP2 and at PARP7 were 100 to 1000 nM and < 10 nM, respectively.

As for `Cc1cc2c(C(F)(F)F)cnc(N3CCN(C(=O)[C@H]4C[C@H](NC(C)(C)c5cc(C(F)(F)F)c(=O)[nH]n5)C4)CC3)c2[nH]1` [Embodiment 68, 6-(2-(((1R,3R)-3-(4-(2-methyl-4-(trifluoromethyl)-1H-pyrrolo[2,3-c]pyridin-7-yl)piperazine-1-carbonyl)cyclobutyl)amino)propan-2-yl)-4-(trifluoromethyl)pyridazin-3(2H)-one], the IC50 against PARP7 is < 10 nM.
